Patent publication US20040102423A1, “Spironolactone and angiotensin II antagonist combination therapy for treatment of congestive heart failure” (G.D. Searle & Co., priority 1995, published 2004)
pIC50: −log10 of the molar value.

Assays:
[1] = biological target: angiotensin II AT1 receptor; test: Assay A: Angiotensin II binding activity, rat uterine membrane preparation, 125I-AII displacement
Experimental: Assay A: Antiotensin II Binding Activity
Compounds of the invention were tested for ability to bind to the smooth muscle angiotensin II receptor using a rat uterine membrane preparation. […] Rat uterine membranes were prepared from fresh tissue. All procedures were carried out at 4° C. Uteri were stripped of fat and homogenized in phosphate-buffered saline at pH 7.4 containing 5 mM EDTA. The homogenate was centrifuged at 1500×g for 20 min., and the supernatant was recentrifuged at 100,000×g for 60 min. The pellet was resuspended in buffer consisting of 2 mM EDTA and 50 mM Tris-HCl (pH 7.5) to a final protein concentration of 4 mg/ml. […] The reaction was initiated by the addition of membrane protein and the mixture was incubated at 25° C. for 60 min. The incubation was terminated with ice-cold 50 mM Tris-HCl (pH 7.5) and the mixture was filtered to separate membrane-bound labelled peptide from the free ligand. The incubation tube and filter were washed with ice-cold buffer. Filters were assayed for radioactivity in a Micromedic gamma counter. Nonspecific binding was defined as binding in the presence of 10 μM of unlabelled AII. Specific binding was calculated as total binding minus nonspecific binding. […] Binding data were analyzed by a nonlinear least-squares curve fitting program.

rabbit aortic rings = test: Assay B: In vitro vascular smooth muscle response for AII (antagonist activity, pA2); type: cell-based; conditions: for Kb: Oryctolagus cuniculus, two values in a cell = two determinations
Experimental: Assay B: In Vitro Vascular Smooth Muscle-Response for AII
The compounds of the invention were tested for antagonist activity in rabbit aortic rings. Male New Zealand white rabbits (2-2.5 kg) were sacrificed using an overdose of pentobarbital and exsanguinated via the carotid arteries. The thoracic aorta was removed, cleaned of adherent fat and connective tissue and then cut into 3-mm ring segments. The endothelium was removed from the rings by gently sliding a rolled-up piece of filter paper into the vessel lumen. The rings were then mounted in a water-jacketed tissue bath, maintained at 37° C., between moveable and fixed ends of a stainless steel wire with the moveable end attached to an FT03 Grass transducer coupled to a Model 7D Grass Polygraph for recording isometric force responses. The bath was filled with 20 ml of oxygenated (95% oxygen/5% carbon dioxide) Krebs solution of the following composition (mM): 130 NaCl, 15 NaHCO3, […], 1.2 NaH2PO4, 1.2 MgSO4, 2.5 CaCl2, and 11.4 glucose. The preparations were equilibrated for one hour before approximately one gram of passive tension was placed on the rings. Angiotensin II concentration-response curves were then recorded (3×10^−10 to 1×10^−5 M). Each concentration of AII was allowed to elicit its maximal contraction, and then AII was washed out repeatedly for 30 minutes before rechallenging with a higher concentration of AII. Aorta rings were exposed to the test antagonist at 10^−5 M for 5 minutes before challenging with AII. Adjacent segments of the same aorta ring were used for all concentration-response curves in the presence or absence of the test antagonist. The effectiveness of the test compound was expressed in terms of pA2 values and were calculated according to H. O. Schild [Br. J. Pharmacol. Chemother., 2, 189-206 (1947)]. The pA2 value is […] which increases the EC50 value for AII by a factor of two. Each test antagonist was evaluated in aorta rings from two rabbits.

Compound: CCCCc1nc(CCCC)n(Cc2ccc(-c3ccccc3C(=O)OC)cc2)n1 [Compound 12]
- pIC50 [1]: 8.22
- Kb (rabbit aortic rings): 2.19 nM

Compound: CCCCc1nc(CCCC)n(Cc2ccc(-c3ccccc3C(=O)O)cc2)n1 [Compound 13]
- pIC50 [1]: 7.77
- Kb (rabbit aortic rings): 2 nM

Compound: CCCCc1nc(CCCC)n(Cc2ccc(-c3ccccc3-c3nnn[nH]3)cc2)n1 [Compound 14]
- pIC50 [1]: 8.14
- Kb (rabbit aortic rings): 1.45 nM

Compound: CCCCc1nc(CCCC)n(Cc2ccc(-c3ccccc3C(=O)NN)cc2)n1 [Compound 15]
- pIC50 [1]: 7.80
- Kb (rabbit aortic rings): 4.9 nM

Compound: CCCCc1nc(CCCC)n(Cc2ccc(-c3ccccc3C(=O)NNS(=O)(=O)C(F)(F)F)cc2)n1 [Compound 16]
- pIC50 [1]: 8.19
- Kb (rabbit aortic rings): 1.12 nM

Compound: CCCCc1nc(Cl)nn1Cc1ccc(-c2ccccc2C(=O)O)cc1 [Compound 17]
- pIC50 [1]: 8.40
- Kb (rabbit aortic rings): 2.29 nM

Compound: CCCCc1nc(Cl)nn1Cc1ccc(-c2ccccc2-c2nnn[nH]2)cc1 [Compound 18]
- pIC50 [1]: 6.01
- Kb (rabbit aortic rings): 724 nM

Compound: CCCCc1nc(Cl)n(Cc2ccc(-c3ccccc3C(=O)O)cc2)n1 [Compound 19]
- pIC50 [1]: 4.92
- Kb (rabbit aortic rings): 6610 nM

Compound: CCCCc1nc(C(F)(F)CCC)n(Cc2ccc(-c3ccccc3-c3nnn[nH]3)cc2)n1 [Compound 22]
- pIC50 [1]: 6.34
- Kb (rabbit aortic rings): 251 nM

Compound: CCCCCc1nc(CCCCC)n(Cc2ccc(-c3ccccc3-c3nnn[nH]3)cc2)n1 [Compound 24]
- pIC50 [1]: 8.00
- Kb (rabbit aortic rings): 27.5 nM

Compound: CCCCc1nc(CCC)nn1Cc1ccc(-c2ccccc2-c2nnn[nH]2)cc1 [Compound 25]
- pIC50 [1]: 6.32
- Kb (rabbit aortic rings): 158 nM

Compound: CCCCc1nc(C(OC)OC)nn1Cc1ccc(-c2ccccc2-c2nnn[nH]2)cc1 [Compound 35]
- pIC50 [1]: 7.39
- Kb (rabbit aortic rings): 56.2 nM

Compound: CCCCc1nc(CCc2ccccc2)n(Cc2ccc(-c3ccccc3-c3nnn[nH]3)cc2)n1 [Compound 36]
- pIC50 [1]: 5.85
- Kb (rabbit aortic rings): 1200 nM

Compound: CCCCc1nc(CCc2ccccc2)nn1Cc1ccc(-c2ccccc2-c2nnn[nH]2)cc1 [Compound 37]
- pIC50 [1]: 6.47
- Kb (rabbit aortic rings): 126 nM

Compound: CCCCCCCCc1nc(CCCC)nn1Cc1ccc(-c2ccccc2-c2nnn[nH]2)cc1 [Compound 39]
- pIC50 [1]: 8.00
- Kb (rabbit aortic rings): 13.2 nM

Compound: CCCCc1nc(CNC(=O)OC(C)(C)C)n(Cc2ccc(-c3ccccc3-c3nnn[nH]3)cc2)n1 [Compound 45]
- pIC50 [1]: 8.36
- Kb (rabbit aortic rings): 3.89 nM

Compound: CCCCc1nc(CNC(=O)OC(C)(C)C)nn1Cc1ccc(-c2ccccc2-c2nnn[nH]2)cc1 [Compound 46]
- pIC50 [1]: 6.96
- Kb (rabbit aortic rings): 158 nM

Compound: CCCCc1nc(CN)n(Cc2ccc(-c3ccccc3-c3nnn[nH]3)cc2)n1 [Compound 47]
- pIC50 [1]: 7.68
- Kb (rabbit aortic rings): 14.1 nM

Compound: CCCCc1nc(CC(OCC)OCC)nn1Cc1ccc(-c2ccccc2-c2nnn[nH]2)cc1 [Compound 49]
- pIC50 [1]: 6.92
- Kb (rabbit aortic rings): 87.1 nM

Compound: CCCCc1nc(CC)nn1Cc1ccc(-c2ccccc2-c2nnn[nH]2)cc1 [Compound 50]
- pIC50 [1]: 7.27
- Kb (rabbit aortic rings): 19.5 nM

Compound: CCCCc1nc(CC)n(Cc2ccc(-c3ccccc3-c3nnn[nH]3)cc2)n1 [Compound 51]
- pIC50 [1]: 8.06
- Kb (rabbit aortic rings): 4.07 nM

Compound: CCCCc1nc(CNC(=O)CCC(NC(C)=O)C(=O)OC(C)(C)C)nn1Cc1ccc(-c2ccccc2-c2nnn[nH]2)cc1 (stereo not shown) [Compound 52]
- pIC50 [1]: 7.00
- Kb (rabbit aortic rings): 7.24 nM

Compound: CCCCc1nc(CCC2CCCCC2)n(Cc2ccc(-c3ccccc3-c3nnn[nH]3)cc2)n1 [Compound 53]
- pIC50 [1]: 7.19
- Kb (rabbit aortic rings): 27.5 nM

Compound: CCCCc1nc(CCC2CCCCC2)nn1Cc1ccc(-c2ccccc2-c2nnn[nH]2)cc1 [Compound 54]
- pIC50 [1]: 5.51
- Kb (rabbit aortic rings): 955 nM

Compound: CCCCc1nc(CCCO)n(Cc2ccc(-c3ccccc3-c3nnn[nH]3)cc2)n1 [Compound 57]
- pIC50 [1]: 5.64
- Kb (rabbit aortic rings): 1000 nM

Compound: CCCCc1nc(C(F)F)nn1Cc1ccc(-c2ccccc2-c2nnn[nH]2)cc1 [Compound 58]
- pIC50 [1]: 6.85
- Kb (rabbit aortic rings): 355 nM

Compound: CCCCc1nc(C(F)(F)Cc2ccccc2)nn1Cc1ccc(-c2ccccc2-c2nnn[nH]2)cc1 [Compound 62]
- pIC50 [1]: 7.59
- Kb (rabbit aortic rings): 2.04 nM

Compound: CCCCc1nc(C(=O)O)nn1Cc1ccc(-c2ccccc2-c2nnn[nH]2)cc1 [Compound 63]
- pIC50 [1]: 7.21
- Kb (rabbit aortic rings): 17 nM

Compound: CCCCc1ncnn1Cc1ccc(-c2ccccc2-c2nnn[nH]2)cc1 [Compound 64]
- pIC50 [1]: 7.27
- Kb (rabbit aortic rings): 100 nM

Compound: CCCCc1ncn(Cc2ccc(-c3ccccc3-c3nnn[nH]3)cc2)n1 [Compound 65]
- pIC50 [1]: 7.64
- Kb (rabbit aortic rings): 14.1 nM

Compound: CCCCc1nc(C23CC4CC(CC(C4)C2)C3)nn1Cc1ccc(-c2ccccc2-c2nnn[nH]2)cc1 [Compound 67]
- pIC50 [1]: 5.51
- Kb (rabbit aortic rings): 1320 nM

Compound: CCCCc1nc(CF)n(Cc2ccc(-c3ccccc3-c3nnn[nH]3)cc2)n1 [Compound 71]
- pIC50 [1]: 4.92
- Assay B pA2 (result given as symbol) (rabbit aortic rings): * (Antagonist Activity not observed up to 10 μM of test compound.)

Compound: CCCCc1nc(CC23CC4CC(CC(C4)C2)C3)n(Cc2ccc(-c3ccccc3-c3nnn[nH]3)cc2)n1 [Compound 72]
- pIC50 [1]: 7.08
- Kb (rabbit aortic rings): 776 nM

Compound: CCCCc1nc(CC23CC4CC(CC(C4)C2)C3)nn1Cc1ccc(-c2ccccc2-c2nnn[nH]2)cc1 [Compound 73]
- pIC50 [1]: 6.10
- Kb (rabbit aortic rings): 22.4 nM

Compound: CCCCc1nc(CCC(=O)O)nn1Cc1ccc(-c2ccccc2-c2nnn[nH]2)cc1 [Compound 74]
- pIC50 [1]: 8.19
- Kb (rabbit aortic rings): 2.75 nM

Compound: CCCCc1nc(C2CCCCC2)n(Cc2ccc(-c3ccccc3-c3nnn[nH]3)cc2)n1 [Compound 76]
- pIC50 [1]: 5.27
- Kb (rabbit aortic rings): 3020 nM

Compound: CCCCc1nc(C2CCCCC2)nn1Cc1ccc(-c2ccccc2-c2nnn[nH]2)cc1 [Compound 77]
- pIC50 [1]: 4.82
- Kb (rabbit aortic rings): 1700 nM

Compound: CCCCc1nc(CCCNC(=O)OC(C)(C)C)n(Cc2ccc(-c3ccccc3-c3nnn[nH]3)cc2)n1 [Compound 78]
- pIC50 [1]: 7.00
- Kb (rabbit aortic rings): 100 nM

Compound: CCCCc1nc(CCCNC(=O)OC(C)(C)C)nn1Cc1ccc(-c2ccccc2-c2nnn[nH]2)cc1 [Compound 79]
- pIC50 [1]: 8.31
- Kb (rabbit aortic rings): 0.631 nM

Compound: CCCCc1nc(C(F)(F)C(F)(F)F)nn1Cc1ccc(-c2ccccc2-c2nnn[nH]2)cc1 [Compound 80]
- pIC50 [1]: 7.60
- Kb (rabbit aortic rings): 7.94 nM

Compound: CCCCc1nc(C(F)(F)C(F)(F)C(F)(F)F)nn1Cc1ccc(-c2ccccc2-c2nnn[nH]2)cc1 [Compound 81]
- Kb (rabbit aortic rings): 10 nM

Compound: CCCCc1nc(CCCN)n(Cc2ccc(-c3ccccc3-c3nnn[nH]3)cc2)n1 [Compound 82]
- pIC50 [1]: 8.10
- Kb (rabbit aortic rings): 3.16 nM

Compound: CCCCc1nc(CCCN)nn1Cc1ccc(-c2ccccc2-c2nnn[nH]2)cc1 [Compound 83]
- pIC50 [1]: 8.44
- Kb (rabbit aortic rings): 5.01 nM

Compound: CCCCc1nc(CC2CCCCC2)n(Cc2ccc(-c3ccccc3-c3nnn[nH]3)cc2)n1 [Compound 84]
- pIC50 [1]: 7.80
- Kb (rabbit aortic rings): 79.4 nM

Compound: CCCCc1nc(CC2CCCCC2)nn1Cc1ccc(-c2ccccc2-c2nnn[nH]2)cc1 [Compound 85]
- pIC50 [1]: 8.06
- Kb (rabbit aortic rings): 1.26 nM

Compound: CCCCc1nc(CC)nn1Cc1ccc(-c2ccccc2C(=O)O)cc1 [Compound 86]
- pIC50 [1]: 8.05
- Kb (rabbit aortic rings): 15.8 nM

Compound: CCCCc1nc(CC)n(Cc2ccc(-c3ccccc3C(=O)O)cc2)n1 [Compound 87]
- pIC50 [1]: 7.04
- Kb (rabbit aortic rings): 15.8 nM

Compound: CCCCc1nc(C)n(Cc2ccc(-c3ccccc3C(=O)O)cc2)n1 [Compound 88]
- pIC50 [1]: 7.30
- Kb (rabbit aortic rings): 20 nM

Compound: CCCCc1nn(CCCC)c(=O)n1Cc1ccc(-c2ccccc2C(=O)O)cc1 [Compound 89]
- pIC50 [1]: 7.74
- Kb (rabbit aortic rings): 12.6 nM

Compound: CCCCc1nn(CCCC)c(=O)n1Cc1ccc(-c2ccccc2-c2nnn[nH]2)cc1 [Compound 90]
- pIC50 [1]: 8.25
- Kb (rabbit aortic rings): 1 nM

Compound: CCCCc1nn(CC(=O)C23CC4CC(CC(C4)C2)C3)c(=O)n1Cc1ccc(-c2ccccc2-c2nn[nH]n2)cc1 [Compound 91]
- pIC50 [1]: 7.52
- Kb (rabbit aortic rings): 2.51 nM

Compound: CCCCc1nn(CCCc2ccccc2)c(=O)n1Cc1ccc(-c2ccccc2-c2nn[nH]n2)cc1 [Compound 92]
- pIC50 [1]: 7.46
- Kb (rabbit aortic rings): 12.6 nM

Compound: CCCCc1nn(CC(=O)OC(C)(C)C)c(=O)n1Cc1ccc(-c2ccccc2-c2nn[nH]n2)cc1 [Compound 95]
- pIC50 [1]: 7.18
- Kb (rabbit aortic rings): 6.31 nM

Compound: CCCCc1nc2cnncc2n1Cc1ccc(-c2ccccc2-c2nnn[nH]2)cc1 [Compound 128]
- Kb (rabbit aortic rings): 2.34 nM
